Experimental data as given in patent publication US20040137454A1, “Assay for drug-induced recoding” (priority 2004, published 2004).

Assays:
endogenous antizyme = assay: Endogenous antizyme levels measured as ODC-inhibitory activity in HEK293 cell extracts; type: cell-based, human; conditions: HEK293 cells, 24 hours; for Antizyme: 1 mM aminoguanidine
Procedure: The endogenous antizyme levels were also measured for comparison. HEK293 cells were plated in 10 cm dishes with 10 ml of the growth media as described above at a concentration of 3×10^5 cells/ml and incubated for 24 hours. The medium was replaced with fresh medium supplemented with 1 mM aminoguanidine and various concentrations of either putrescine, spermidine, or spermine. The dishes were incubated further for 24 hours, placed on ice, washed with phosphate buffered saline twice, drained completely, and cells were disrupted by 3 freeze/thaw cycles. Then 0.5 ml of cell extract buffer (25 mM Tris-HCl, pH 7.2, 1 mM dithiothreitol, 1 mM EDTA, and 0.01% Tween 80) was added, and the cell suspension was centrifuged at 15,000 rpm for 30 minutes at 4° C. Antizyme activities were measured as ODC-inhibitory activities that could be reversed by excess antizyme inhibitor. Cell extracts (40 μl) were mixed with 2.0 units of mouse kidney ODC in duplicate. To one set, 0.1 μg of GST-antizyme inhibitor protein was added. ODC activity of each mixture was assayed by measuring the release of ^14CO2 from L-[1-^14C] ornithine (as described in I. P. Ivanov et al., Discovery of a Spermatogenesis Stage-specific Ornithine Decarboxylase Antizyme: Antizyme 3, 97 Proc. Nat'l Acad. Sci. USA 97, 4808-4813 (2000); I. P. Ivanov et al., Conservation of Polyamine Regulation by Translational Frameshifting from Yeast to Mammals, 19 EMBO J. 1907-1917 (2000); S. Matsufuji et al., Reading Two Bases Twice: Mammalian Antizyme Frameshifting in Yeast, 15 EMBO J. 1360-1370 (19%)), and expressed as specific activities. Protein concentrations of the extracts were determined with the BCA protein assay kit (Pierce) using bovine serum albumin as a standard. One unit of ODC and antizyme was defined as the activity releasing […] CO2 per hour and the activity inhibiting 1 unit of ODC, respectively.

[1] = system: antizyme 1 polyamine-regulated frameshifting sequence; assay: Dual luciferase reporter assay of antizyme 1 +1 frameshifting (p2Lucaz1) in transfected cells; type: cell-based, human; conditions: for Maximal frameshifting stimulation: HEK293, standard growth conditions without DFMO, 0.01-0.1 mM spermine, 0.1-2 mM spermidine, 0.5-2 mM putrescine; for Fold increase of antizyme 1 frameshifting upon polyamine addition to DFMO pre-treated cells: HEK293 pre-treated with DFMO, 0.1 mM spermine, 2 mM spermidine, 2 mM putrescine; for Effect on amount of frameshifting, p2Lucaz1: cultured mammalian cells, controls 2.5 mM DFMO
Excerpt: Referring now to FIG. 2, the construction of illustrative embodiments of the dual reporter assay constructs is depicted. These illustrative embodiments use the renilla and firefly luciferases as first and second reporters, respectively. […] Pat. […] The shift site (TCCT), corresponding to UCCU in the corresponding mRNA, is present at nucleotides 55-58 of each of these sequences. […] Zero frame (“0 frame”) controls for each construct were identical except that the first T of the stop codon following the shift site was deleted. It will be appreciated that the DNA constructs disclosed herein are merely examples of dual reporter constructs comprising two reporter-encoding DNA segments separated by a cloning site containing a polyamine-regulated frameshifting sequence, and that all such constructs are included within the scope of the present invention. Cultured mammalian cells are transfected with the dual construct according to method well known in the art. Parallel cell lines are transfected with the +1 reading frame and 0 reading frame construct according to methods well known in the art. The cells are then incubated under varying conditions to test the effect of such conditions on the polyamine regulation. Cells are then lysed and the luciferase activity measured by light emission after injection of luminescence substrate, as is well known in the art. […] This provides a quantitative assay for measuring the polyamine-induced recoding. […] Similarly, mouse germ line (GC-2) cells were obtained from the American Tissue Type culture Collection (Manassas, Va.). […] All cells were incubated at 37° C. in an atmosphere of 5% CO2 All media and antibiotics were obtained from Invitrogen Life Technologies (Carlsbad, Calif.), and all sera were obtained from HyClone Inc. (Logan Utah). The cells were transfected with the dual luciferase constructs p2Lucaz1 and p2Lucaz2 using LIPOFECTIN reagent (Invitrogen Life Technologies). LIPOFECTIN reagent is a 1:1 (w/w) liposome formulation of the cationic lipid […],-trimethylammonium chloride (DOTMA), and dioleoyl phosphotidylethanolamine (DOPE) in membrane filtered water. Cells (0.3×10^5) were plated in 48-well, treated tissue culture plates and grown for 48 hours as described above. DFMO (2.5 mM) was added to half the plates of each cell line to inhibit polyamine synthesis. […] Cells were lysed using passive lysis buffer and luciferase activity was determined using the Dual Luciferase reporter assay (Promega, Madison, Wis.) as described in Grentzmann, supra. For all reactions, light emission was measure between 2 and 12 seconds after 100 μl of luminescence substrate was injected.

[2] = system: antizyme 1 and 2 frameshifting sequences with downstream pseudoknot deleted; assay: Dual luciferase frameshifting assay, downstream pseudoknot deletion constructs p2Lucaz1pkdel and p2Lucaz2pkdel; type: cell-based, human; conditions: 1 mM spermidine added to DFMO (2.5 mM) treated HEK293 cells
Excerpt: (§1) Referring now to FIG. 2, the construction of illustrative embodiments of the dual reporter assay constructs is depicted. These illustrative embodiments use the renilla and firefly luciferases as first and second reporters, respectively. The sequences referred to herein as SEQ ID NO:1 and SEQ ID NO:2, which comprise antizyme 1 and 2 polyamine-regulated frameshifting sequences, respectively, were cloned into the SalI and BamHI sites of the p2Luc vector (U.S. Pat. No. 6,143,502) to produce plasmids p2Lucaz1 and p2Lucaz2. The shift site (TCCT), corresponding to UCCU in the corresponding mRNA, is present at nucleotides 55-58 of each of these sequences. […]
(§2) To determine the effectiveness of the role of sequences flanking the frameshift site in inducing frameshifting levels, dual luciferase constructs were made in which antizyme sequences preceding and following the antizyme 1 and 2 frameshift sites were deleted. […] As described above, these constructs were then transiently transfected into HEK293 cells grown in standard growth nedia or media with 2.5 mM DFMO, and frameshift levels were measured following the addition of exogenously added spermidine (1 mM).

[3] = system: antizyme 2 polyamine-regulated frameshifting sequence; assay: Dual luciferase reporter assay of antizyme 2 +1 frameshifting (p2Lucaz2) in transfected cells; type: cell-based, human; conditions: for Effect on amount of frameshifting, p2Lucaz2: cultured mammalian cells, controls 2.5 mM DFMO
Excerpt: Referring now to FIG. 2, the construction of illustrative embodiments of the dual reporter assay constructs is depicted. These illustrative embodiments use the renilla and firefly luciferases as first and second reporters, respectively. The sequences referred to herein as SEQ ID NO:1 and SEQ ID NO:2, which comprise antizyme 1 and 2 polyamine-regulated frameshifting sequences, respectively, were cloned into the SalI and BamHI sites of the p2Luc vector (U.S. Pat. No. 6,143,502) to produce plasmids p2Lucaz1 and p2Lucaz2. The shift site (TCCT), corresponding to UCCU in the corresponding mRNA, is present at nucleotides 55-58 of each of these sequences. Constructs were also prepared with deletions of the upstream stimulatory sequences of the antizyme 1 polyamine-regulated frameshifting sequence (SEQ ID NO:3) and the antizyme 2 polyamine-regulated frameshifting sequence (SEQ ID NO:4), resulting in plasmids p2Lucaz1usdel and p2Lucaz2usdel. Other constructs were prepared with deletions of the downstream pseudoknot stimulatory sequences of the antizyme 1 polyamine-regulated frameshifting sequence (SEQ ID NO:5) and the antizyme 2 polyamine-regulated frameshifting sequence (SEQ ID NO:6), resulting in plasmids p2Lucaz1pkdel and p2Lucaz2pkdel. Zero frame (“0 frame”) controls for each construct were identical except that the first T of the stop codon following the shift site was deleted. […]
Cultured mammalian cells are transfected with the dual construct according to method well known in the art. Parallel cell lines are transfected with the +1 reading frame and 0 reading frame construct according to methods well known in the art. […] Cells are then lysed and the luciferase activity measured by light emission after injection of luminescence substrate, as is well known in the art. […] This provides a quantitative assay for measuring the polyamine-induced recoding. […]

HEK293 cells = assay: Intracellular polyamine levels by HPLC analysis of whole cell lysates; type: cell-based, human
Procedure: Polyamine levels were also measured for comparison. Intracellular polyamine levels were determined by HPLC analysis of whole cell lysates. Cells (3×10^5) were grown in 6-well plates for 48 hours at 37° C. in an atmosphere of 5% CO2, either in the presence or absence of DFMO. Cells were then mock transfected as described above. […] Cells were allowed to grow for 12 hours, and 5×10^6 cells were harvested and washed three times with phosphate buffered saline.

[4] = system: antizyme 1 and 2 frameshifting sequences with upstream stimulatory sequences deleted; assay: Dual luciferase frameshifting assay, upstream deletion constructs p2Lucaz1usdel and p2Lucaz2usdel; type: cell-based, human; conditions: 1 mM spermidine added to DFMO (2.5 mM) treated HEK293 cells
Excerpt: as §1, §2

[5] = system: antizyme 3 frameshifting sequence; assay: Dual luciferase reporter assay with p2Luc containing the antizyme 3 frameshifting sequence; type: cell-based; conditions: cultured mammalian cells, controls 2.5 mM DFMO

In the case of NCCCCN [Putrescine, putrescine], the “Fold Increase (antizyme vs control)” value (endogenous antizyme; 2 mM exogenous polyamine) is reported as 1.5, the Antizyme (endogenous antizyme; 2 mM exogenous polyamine) is reported as 3.0 ± 0.7 units/mg and the Maximal frameshifting stimulation [1] is reported as “approximately 40%”. The “Fold increase of antizyme 1 frameshifting upon polyamine addition to DFMO pre-treated cells” value [1] was about 10 fold.
With NCCCCNCCCN [Spermidine, spermidine] the “Stimulation of frameshifting, downstream (pseudoknot) deletion constructs” value [2] was “approximately 2 fold”, the “Fold Increase (antizyme vs control)” value (endogenous antizyme; 1 mM exogenous polyamine) was 1.1 and the Antizyme (endogenous antizyme; 1 mM exogenous polyamine) was 23 ± 0.2 units/mg. For the same molecule, the “Fold Increase (antizyme vs control)” value (endogenous antizyme; 2 mM exogenous polyamine) was 1.6, the Antizyme (endogenous antizyme; 2 mM exogenous polyamine) was 3.4 units/mg and the “Antizyme 2 frameshifting response compared with antizyme 1” value ([3]; HEK293, with or without DFMO, FIG. 4) was “showed a very similar response to polyamine depletion and addition”. For the same molecule, the “Increase of intracellular spermidine levels over control cells” value (HEK293 cells; 1 mM spermidine added to DFMO treated HEK293 cells) was 1.5 fold, the “Effect on intracellular putrescine and spermine levels” value (HEK293 cells; 1 mM spermidine added to DFMO treated or untreated HEK293 cells) was “restored putrescine and spermine levels to nearly that of control cells” and the “Increase of intracellular spermidine levels over control cells” value (HEK293 cells; 1 mM spermidine added to untreated (no DFMO) HEK293 cells) was 1.7 fold. For the same molecule, the “Stimulation of frameshifting, upstream deletion constructs” value [4] was 5-6 fold, the Maximal frameshifting stimulation [1] was “approximately 40%” and the “Fold increase of antizyme 1 frameshifting upon polyamine addition to DFMO pre-treated cells” value [1] was about 10 fold.
With NCCCNCCCCNCCCN [Spermine, spermine] the “Fold Increase (antizyme vs control)” value (endogenous antizyme; 0.4 mM exogenous polyamine) was 1.2, the Antizyme (endogenous antizyme; 0.4 mM exogenous polyamine) was 2.6 ± 0.5 units/mg and the “Fold Increase (antizyme vs control)” value (endogenous antizyme; 0.8 mM exogenous polyamine) was 1.4. For the same molecule, the Antizyme (endogenous antizyme; 0.8 mM exogenous polyamine) was 3.0 ± 0.6 units/mg, the Maximal frameshifting stimulation [1] was “approximately 40%” and the “Fold increase of antizyme 1 frameshifting upon polyamine addition to DFMO pre-treated cells” value [1] was about 10 fold.
In the case of N=C(N)NCCCCN [agmatine], the “Effect on amount of frameshifting, antizyme 3 frameshifting sequence” value ([5]; 0-16 mM agmatine, FIG. 7A) is reported as “no increase in frameshifting was observed”, the “Effect on amount of frameshifting, p2Lucaz2” value ([3]; 0-16 mM agmatine, FIG. 7A) is reported as “significantly increased the amount of frameshifting observed” and the “Effect on amount of frameshifting, p2Lucaz1” value ([1]; 0-16 mM agmatine, FIG. 7A) is reported as “significantly increased the amount of frameshifting observed”.
For NCCCCCN [cadaverine], the “Effect on amount of frameshifting, antizyme 3 frameshifting sequence” value ([5]; 0-32 mM cadaverine, FIG. 7B) was “no increase in frameshifting was observed”, the “Effect on amount of frameshifting, p2Lucaz2” value ([3]; 0-32 mM cadaverine, FIG. 7B) was “effective for significantly increasing the amount of frameshifting observed” and the “Effect on amount of frameshifting, p2Lucaz1” value ([1]; 0-32 mM cadaverine, FIG. 7B) was “effective for significantly increasing the amount of frameshifting observed”.
